In article PMC4234468 (PLoS ONE, 2014):

How the values were obtained:
[1] = test system: β2AR and IR receptor complexes; experiment: BRET^2 saturation assay with agonist stimulation, β2AR and IR homo- and heteromers in HEK-293 cells; conditions: data not shown
β2AR-RLuc = β2AR-RLuc fusion construct; ref Vrecl et al. [47]; cited from earlier work
HA-β2AR [2] = target: T1, HA-β2AR (Homo sapiens, UniProt P07550); experiment: HA-β2AR internalization quantified by ELISA in HEK-293 cells; assay type: cell-based
T1 construct: host or cells: HEK-293
Protocol: ELISA assays for the measurement of surface-expressed HA-β2AR and quantification of receptor internalization were performed as described previously. Briefly, HEK-293 cells were transiently transfected with either β2AR-RLuc8 alone or β2AR-RLuc8 and IR-GFP^2. One microgram of each receptor was used, and the total amount of cDNA used for transfection was kept uniform by adding empty pcDNA3.1 vector. […] After 48 h, cells were first subjected to a 2-h starvation period, and then were treated as required in HEPES-modified DMEM with 0.1% BSA for 30 min at 37°C before fixing with 4% paraformaldehyde for 20 min at 4°C. Cells were then washed 3 times in PBS and blocked (PBS containing 1% BSA) for 60 min at room temperature. Cells were kept at room temperature for all of the subsequent steps. First, cells were incubated for 2 h with anti-HA antibody at a 1∶600 dilution. After 3 washes, cells were incubated with anti-rat horseradish peroxidase-conjugated antibody at a 1∶1000 dilution. After extensive washing, the reaction was developed using the 3, 3′, 5, 5′-tetra-methylbenzidine (TMB) liquid substrate system. […] The absorbances were measured at 450 nm using the microplate reader Rosys Anthos 2010 (Anthos Labtec Instruments, Wals, Austria). […]
[…]. Data are expressed as the means ± S.E. from three independent experiments performed in triplicate. […]

HA-β2AR [3] = target: T1, HA-β2AR; experiment: whole-cell radioligand binding assay, [125I]-iodopindolol displacement, HA-β2AR; conditions: HEK-293 cells expressing HA-β2AR alone or with IR
Protocol: To establish a relationship between the luminescence/fluorescence signals generated by RLuc8 and GFP^2-tagged β2ARs and cell-surface receptor number, radioligand binding assays were carried out on whole cells as previously described [47]. […] An aliquot of cells (∼5×10^5) from each transfection was also transferred into a 60-mm dish for total luminescence/fluorescence measurements as described above. […] Determination of the radioactivity levels was performed in triplicate. Binding parameters were determined from displacement curves generated by a sigmoidal dose-response curve fit (GraphPad Prism 5.0). Receptor density (Bmax), expressed as the receptor number per cell, was calculated as previously described by Ramsay et al. [48]. Whole-cell radioligand binding assays were also performed with cells expressing β2AR alone or in combination with IR.

[4] = test system: β2AR in epidermoid carcinoma A431 cells; set-up: method as in PMID 14709719; conditions: cited from earlier work

In the case of `CC(C)NCC(O)c1ccc(O)c(O)c1` (stereo not shown) [isoproterenol, reference compound], the “change in the BRET^2 signal on agonist stimulation” value [1] is reported as “did not promote any detectable change”.
In the case of `CC(C)NCC(O)COc1cccc2[nH]ccc12` (stereo not shown) [pindolol], the IC50 (β2AR-RLuc) is given as 0.94 ± 0.06 nM.
For insulin, the “change in the BRET^2 signal on agonist stimulation” value [1] was “did not promote any detectable change”, the “amount of surface-expressed β2AR lost to internalization in response to insulin” value (HA-β2AR [2]) was roughly 15% and the “β2AR internalization (ELISA, Figure S1)” value (HA-β2AR [2]; insulin 0.1 µM, 30 min, 37°C) was “did not induce marked β2AR internalization”. For the same molecule, the “competition for binding against [125I]-iodopindolol” value (HA-β2AR [3]) was “neither competed for binding” and the “amount of surface-expressed β2AR lost to internalization in response to insulin” value [4] was roughly 30%.
